We go through 1 compound from patent US9505763B2, “Cancer treatment using BMP inhibitor” (Vanderbilt University, priority 2011, dated 2016).

The test system of test [1] is A549 cells. Nature of the test: Ethidium bromide uptake cell death assay. The format is cell-based. The settings on record: 48 hours, 10 μM Dorsomorphin or 1 μM selective antagonist. As to the method:
Cell Death Assay: A549 and H1299 cells were plated in 6 well plates with 10^6 cells per well. Cells were treated with DMSO or a BMP receptor antagonist for 12 and 48 hours. Adherent and floating cells were harvested and incubated with 0.1 mg/ml of ethidium bromide. Immediately after staining approximately 100 cells were counted and the percentage of cells that took up ethidium bromide was determined.

The subject of a further test is AMP kinase. The settings on record: compared with Dorsomorphin and LDN; cited from earlier work.
For the next test, the system named is Smad 1/5/8 activity. Briefly: BRE-luciferase reporter assay. The format is cell-based. The settings on record: H1299 cells; 10 μM Dorsomorphin or 1 μM DMH1, DMH2, LDN; 48 hours; vs DMSO. As to the method: Luciferase Assays. 10^6 H1299 cells were transfected with 2 μg of BRE-luciferace plasmid using a Nucleofector II. […] Cells were lysed with luciferase lysis buffer (Promega). Samples were added to luciferase assay substrate (Promega) and luminsescence measured by the TD-20/20 Luminometer (Turner Designs/Turner BioSystems, Sunnyvale, Calif.). Control samples included luciferase assay substrate alone and luciferase assay substrate plus 1× reporter lysis buffer.
A general note: A reporter such as luciferase makes a cellular process visible.

The test system of test [2] is phosphorylated Smad 1/5/8. Briefly: Western blot for phosphorylated Smad 1/5/8. The format is cell-based. On the procedure: (§1) Western Blot Analysis. Total cellular protein was prepared using RIPA buffer containing a protease inhibitor cocktail and protein concentration was measured using the BCA assay as described. In brief, protein was analyzed by SDS-PAGE, transferred to nitrocellulose (Schleicher and Schuell, Keene, N.H.). After blocking, the blots were incubated overnight at 4° C. with the appropriate primary antibody in Tris-buffered saline with 1% Tween (TBST) and 5% non-fat milk. Secondary antibodies were applied for 1 hour at room temperature. Specific proteins were detected using the enhanced chemiluminescence system (Amersham, Arlington Heights, Ill.). The primary antibodies that were used were rabbit monoclonal anti-pSmad 1/5/8 (Cell signaling Technology, Danvers Mass.) rabbit anti-actin, an affinity isolated antigen specific antibody (Sigma, Saint Louis, Mo.), rabbit monoclonal anti-Id1 and rabbit monoclonal anti-Id3 (Calbioreagents, San Mateo, Calif.).
(A western blot detects proteins with antibodies after separation by electrophoresis.)

In another test the target is T1, alk2 (Mus musculus, UniProt P37172).
T1 construct: host or cells: C2C12
T1 sequence (P37172 21-509): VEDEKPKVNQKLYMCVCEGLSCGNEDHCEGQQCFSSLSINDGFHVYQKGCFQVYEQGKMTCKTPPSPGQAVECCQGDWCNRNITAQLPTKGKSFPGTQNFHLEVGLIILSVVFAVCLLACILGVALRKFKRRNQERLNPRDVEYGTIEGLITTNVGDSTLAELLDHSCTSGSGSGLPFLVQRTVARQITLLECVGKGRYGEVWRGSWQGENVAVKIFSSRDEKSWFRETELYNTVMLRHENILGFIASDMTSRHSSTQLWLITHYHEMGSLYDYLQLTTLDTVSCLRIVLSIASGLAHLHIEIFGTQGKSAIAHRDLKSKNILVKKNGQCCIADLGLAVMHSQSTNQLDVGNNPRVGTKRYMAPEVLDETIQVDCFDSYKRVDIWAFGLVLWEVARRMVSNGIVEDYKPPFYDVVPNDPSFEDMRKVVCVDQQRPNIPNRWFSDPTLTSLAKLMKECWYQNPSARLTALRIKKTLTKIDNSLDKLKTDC
The conditions noted are these: reported [26]; cited from earlier work.

For test [3], the system named is H1299 cells. Nature of the test: Cell counts after 7 days. The format is cell-based. As to the method:
Cell Counts. A549 and H1299 cells were plated into 6 well plates with 100,000 cells per well. Cells were treated with DMSO or a BMP receptor antagonist for 7 days. The cells were detached with trypsin, stained with trypan blue, and the number of live cells counted using a hemacytometer.

For test [4], the system named is H1299 cells. Nature of the test: Clonogenic growth assay. The conditions noted are these: 1 μM, 2 weeks. The test is classed as cell-based. On the procedure:
(§2) Clonigenic Growth Assay. A549 and H1299 cells were plated into 6 well plates with 500 cells per well. The next day the cells were treated with DMSO or a BMP receptor antagonist for 2 weeks. The colonies were stained with Diff-Quick (IMEB Inc. San Marcos, Calif.) and the total number of colonies per well counted.

Test [5] deals with A549 cells. Nature of the test: Clonogenic growth assay. The test is classed as cell-based. The settings on record: 1 μM, 2 weeks. As to the method:
as §2

For test [6], the system named is H1299 cells. Nature of the test: Amine-reactive fluorescent dye (LIVE/DEAD) flow cytometry. The test is classed as cell-based. As to the method: Cell death was also determined using the LIVE/DEAD fixable dead cell stain kit as per manufacturer's instructions (Life Technologies, L-23101). This assay employs an amine-reactive fluorescent dye, which in compromised membranes the dye reacts with free amines on the cell interior in dead cells. H1299 cells were treated with DMH2 for 48 hours and the percentage of dead cells then detected by flow cytometry.

Test [7] has as its system constitutively active alk6 (ca-alk6). Nature of the test: BRE-luciferase with constitutively active alk6 in H1299 cells. The test is classed as cell-based. The conditions noted are these: 1 μM antagonist. As to the method:
To assess the effects of antagonists on a specific type I BMP receptor, 2 μg of constitutively active ca-alk3 and ca-alk6 expression vectors were co-transfected with the BRE-luciferase reporter into H1299 cells with Nucleofector II. Control cells were co-transfected with the pcDNA3 expression vector. After 48 hours the cells were treated with DMSO or a BMP receptor antagonist for 48 hours and luminescence was measured.

The test system of another test is Id1 and Id3 protein. Briefly: Western blot for Id1 and Id3. The test is classed as cell-based. On the procedure: as §1
The target of the next test is VEGF II (Homo sapiens, UniProt P35968). The settings on record: compared with Dorsomorphin and LDN; cited from earlier work.
Chain of VEGF II (P35968 20-1356): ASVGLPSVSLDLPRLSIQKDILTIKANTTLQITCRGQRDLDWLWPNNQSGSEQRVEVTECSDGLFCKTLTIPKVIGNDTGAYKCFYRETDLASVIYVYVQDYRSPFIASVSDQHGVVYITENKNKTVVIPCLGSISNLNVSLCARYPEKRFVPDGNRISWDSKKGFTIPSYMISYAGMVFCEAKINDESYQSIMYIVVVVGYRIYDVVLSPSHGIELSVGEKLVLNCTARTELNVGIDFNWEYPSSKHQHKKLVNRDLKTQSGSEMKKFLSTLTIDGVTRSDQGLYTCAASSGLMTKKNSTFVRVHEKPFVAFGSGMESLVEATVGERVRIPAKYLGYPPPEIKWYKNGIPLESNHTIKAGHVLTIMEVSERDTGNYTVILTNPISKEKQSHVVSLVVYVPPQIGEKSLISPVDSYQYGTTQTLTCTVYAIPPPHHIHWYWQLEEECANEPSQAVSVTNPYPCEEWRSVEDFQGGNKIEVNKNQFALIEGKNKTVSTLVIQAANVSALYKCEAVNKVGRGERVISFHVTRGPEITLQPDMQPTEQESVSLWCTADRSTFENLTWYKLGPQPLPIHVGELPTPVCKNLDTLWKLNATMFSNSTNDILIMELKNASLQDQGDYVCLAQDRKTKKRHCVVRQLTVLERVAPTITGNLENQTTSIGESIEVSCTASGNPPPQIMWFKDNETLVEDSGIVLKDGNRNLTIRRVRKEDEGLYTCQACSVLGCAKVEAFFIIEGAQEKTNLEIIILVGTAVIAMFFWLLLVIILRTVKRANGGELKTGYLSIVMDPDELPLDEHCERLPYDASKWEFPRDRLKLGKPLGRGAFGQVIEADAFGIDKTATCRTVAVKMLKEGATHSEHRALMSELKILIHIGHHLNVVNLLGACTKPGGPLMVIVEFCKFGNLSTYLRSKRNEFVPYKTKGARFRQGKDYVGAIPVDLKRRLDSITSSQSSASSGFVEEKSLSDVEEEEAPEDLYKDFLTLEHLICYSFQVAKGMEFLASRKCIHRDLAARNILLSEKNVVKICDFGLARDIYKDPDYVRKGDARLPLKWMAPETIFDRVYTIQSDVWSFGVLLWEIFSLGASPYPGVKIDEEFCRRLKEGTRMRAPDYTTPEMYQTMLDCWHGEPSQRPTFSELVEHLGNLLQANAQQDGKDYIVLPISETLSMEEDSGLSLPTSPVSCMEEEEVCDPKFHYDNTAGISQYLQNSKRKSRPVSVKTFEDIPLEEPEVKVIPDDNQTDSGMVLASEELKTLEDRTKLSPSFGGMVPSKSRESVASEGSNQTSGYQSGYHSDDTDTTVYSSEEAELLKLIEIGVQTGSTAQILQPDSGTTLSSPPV
Test [8] concerns Id1, Id2, and Id3 expression. Nature of the test: Quantitative RT-PCR for Id family members. The test is classed as cell-based. The settings on record: A549 and H1299 cell lines; 10 μM Dorsomorphin, 1 μM DMH1 or DMH2; 48 hours. As to the method:
Quantification of Gene Expression. RNA was extracted using the RNeasy kit as per the manufacturer's instructions (Qiagen, Valencia, Calif.). DNAase was used to remove any DNA contamination. cDNA was generated using Advantage RT for PCR kit (BD BiosciencesClontech, Palo Alto, Calif.). Quantitative PCR was performed with the Stratagene Mx3005p (Agilent Technologies) and predesigned validated Taq-Man gene expression assays according to the manufacturer's specifications (Applied Biosystems, Foster City, Calif.). Reference numbers used are: GAPDH (Hs99999905_m1), ACVRL1 (alk1) (Hs00163543_m1), ACVR1A (alk2) (Hs00153836_m1), BMR1A (alk3) (Hs00831730_s1), BMPR1B (alk6) (Hs00176144_m1), Id1 (Hs00357821_g1), Id2 (Hs00747379_m1), and Id3 (Hs00171409-m1). Negative control included all reagents except cDNA. Expression was normalized to GAPDH using the formula […].

SMILES strings stand for the structures. “Also recorded” adds a separate entry of the source.

`CN(C)CCCOc1ccc(-c2cnc3c(-c4ccnc5ccccc45)cnn3c2)cc1` [DMH2]: the “cell death (percentage of cells taking up ethidium bromide)” value in the test with A549 cells [1] is listed as “significant increase in cell death”. Also, the “activity for AMP kinase (comparison)” value in the test on AMP kinase was “less activity”. Besides, in the test with Smad 1/5/8 activity, the “Smad 1/5/8 activity (BRE-luciferase activity)” value is “significant decrease”. In test [2] (A549 cells), the “phosphorylated Smad 1/5/8 expression” value is “decreases”. Moreover, in [2] (lung cancer cell lines (H1299, A549)), the “level of phosphorylated Smad 1/5/8 expression” value is “decreased”. The “inhibition of alk2 activity” value at alk2 is “inhibit”. Further, the “cell growth (number of cells)” value is listed as “significantly more growth inhibition than DMH1” with H1299 cells [3] (H1299, DMEM 5% FCS, 10 μM Dorsomorphin or 1 μM DMH1, DMH2, LDN) and “significant inhibition of cell growth” in the test on H1299 cells [3] (H1299 cultured in SFM, 1 μM). Moreover, the clonogenic growth entry with H1299 cells [4] is “inhibited more by DMH2 and LDN than DMH1”; with A549 cells [5] it was “inhibited more by DMH2 and LDN than DMH1”. Moreover, in the test on H1299 cells [6], the “cell death (amine-reactive fluorescent dye)” value is given as “induced cell death”. Besides, the “inhibition of ca-alk6 activity (BRE-luciferase)” value in test [7] is “more inhibition of alk6 than DMH1 and LDN”. Besides, in the test on Id1 and Id3 protein (A549 and H1299 cells), the “protein levels of Id1 and Id3” value was “decrease”. In the test on Id1 and Id3 protein (H1299 and A549 cells, 1 μM), the “reduction of Id1 protein expression (comparison)” value is given as “greater reduction of Id1 in H1299 cells compared to A549 cells; also recorded: greater reduction of Id1 protein expression than DMH1”. Further, the “activity for VEGF II (comparison)” value on VEGF II is reported as “less activity”. The “Id1, Id2, and Id3 expression (mRNA)” value in test [8] is “significantly decreased”.
